From PubChem BioAssay AID256 (DTP/NCI, 2004)
Values joined by “and” are separate entries in the source; they are usually repeats but may differ in a detail not shown here. Identical values can stand only once. Toxic doses and inconclusive results are not listed. The calls were made as follows: active = survival T/C of 150% or more; inactive = T/C below 125% in these data.

System: CD2F1 mice, L1210 leukemia ip, survival T/C
Assay: NCI In Vivo Anticancer Drug Screen. Data for tumor model L1210 Leukemia (intraperitoneal) in CD2F1 (CDF1) mice
Details: higher = longer survival
Summary of the method: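 Each value reflects a quotient of treated over vehicle control outcomes in mice with a transplanted tumor.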

[1] = endpoint: mean survival time, dose: 12.5 mg/kg/injection, schedule: Q04DX002 (ip), vehicle: saline with Tween-80
[2] = endpoint: mean survival time, dose: 25.0 mg/kg/injection, schedule: Q04DX002 (ip), vehicle: saline with Tween-80
[3] = endpoint: mean survival time, dose: 50.0 mg/kg/injection, schedule: Q04DX002 (ip), vehicle: saline with Tween-80
[4] = endpoint: mean survival time, dose: 100.0 mg/kg/injection, schedule: Q04DX003 (ip), vehicle: saline with Tween-80
[5] = endpoint: mean survival time, dose: 200.0 mg/kg/injection, schedule: Q04DX003 (ip), vehicle: saline with Tween-80
[6] = endpoint: mean survival time, dose: 400.0 mg/kg/injection, schedule: Q04DX003 (ip), vehicle: saline with Tween-80
[7] = endpoint: mean survival time, dose: 100.0 mg/kg/injection, schedule: Q04DX002 (ip), vehicle: saline with Tween-80
[8] = endpoint: mean survival time, dose: 200.0 mg/kg/injection, schedule: Q04DX002 (ip), vehicle: saline with Tween-80
[9] = endpoint: mean survival time, dose: 400.0 mg/kg/injection, schedule: Q04DX002 (ip), vehicle: saline with Tween-80
[10] = endpoint: mean survival time, dose: 100.0 mg/kg/injection, schedule: Q01DX001 (ip), vehicle: saline with Tween-80
[11] = endpoint: mean survival time, dose: 200.0 mg/kg/injection, schedule: Q01DX001 (ip), vehicle: saline with Tween-80
[12] = endpoint: mean survival time, dose: 400.0 mg/kg/injection, schedule: Q01DX001 (ip), vehicle: saline with Tween-80

Measured: T/C

Cc1ccc(NC(=O)N(C)N=O)cc1
inactive: endpoint: mean survival time, dose: 89.0 mg/kg/injection, schedule: Q01DX001 (ip), vehicle: other 89 % of control | endpoint: mean survival time, dose: 133.0 mg/kg/injection, schedule: Q01DX001 (ip), vehicle: other 87 % of control | endpoint: mean survival time, dose: 200.0 mg/kg/injection, schedule: Q01DX001 (ip), vehicle: other 89 % of control | endpoint: mean survival time, dose: 300.0 mg/kg/injection, schedule: Q01DX001 (ip), vehicle: other 93 % of control

O=C(OC(c1ccccc1)c1ccccc1)C(CSC(c1ccccc1)(c1ccccc1)c1ccccc1)NC(c1ccccc1)(c1ccccc1)c1ccccc1 (stereo not given)
inactive: endpoint: mean survival time, dose: 50.0 mg/kg/injection, schedule: Q01DX009 (ip), vehicle: saline 96 % of control | endpoint: mean survival time, dose: 100.0 mg/kg/injection, schedule: Q01DX009 (ip), vehicle: saline 101 % of control | endpoint: mean survival time, dose: 200.0 mg/kg/injection, schedule: Q01DX009 (ip), vehicle: saline 102 % of control | endpoint: mean survival time, dose: 400.0 mg/kg/injection, schedule: Q01DX009 (ip), vehicle: saline 98 % of control

CCC[CH2][Sn]1([CH2]CCC)[O]C2C(CO)OC(n3ccc(=O)[nH]c3=O)C2[O]1 (stereo not given)
inactive: endpoint: mean survival time, dose: 1.56 mg/kg/injection, schedule: Q01DX005 (ip), vehicle: other 98 % of control | endpoint: mean survival time, dose: 3.13 mg/kg/injection, schedule: Q01DX005 (ip), vehicle: other 102 % of control | endpoint: mean survival time, dose: 6.25 mg/kg/injection, schedule: Q01DX005 (ip), vehicle: other 112 % of control | endpoint: mean survival time, dose: 12.5 mg/kg/injection, schedule: Q01DX005 (ip), vehicle: other 100 % of control

C#CC(C)OCCO (stereo not given)
inactive: endpoint: mean survival time, dose: 100.0 mg/kg/injection, schedule: Q04DX003 (ip), vehicle: acetone 104 % of control | endpoint: mean survival time, dose: 200.0 mg/kg/injection, schedule: Q04DX003 (ip), vehicle: acetone 98 % of control | endpoint: mean survival time, dose: 400.0 mg/kg/injection, schedule: Q04DX003 (ip), vehicle: acetone 120 % of control

N[C@@H]1CCCC[C@H]1N.O=C([O-])C(=O)[O-].[Pt+4]
inactive: endpoint: mean survival time, dose: 0.78 mg/kg/injection, schedule: Q04DX003 (ip), vehicle: saline 120 % of control

CC1SC(C(C)(C)C)SC(C)C1C(C)(C)C (stereo not given)
inactive: [1] 102 % of control | [2] 102 % of control | [3] 102 % of control

O=c1ccc2cc(Cl)cc([N+](=O)[O-])c2o1
inactive: endpoint: mean survival time, dose: 100.0 mg/kg/injection, schedule: Q01DX001 (ip), vehicle: Klucel (hydroxypropylcellulose) (HPC) 102 % of control | endpoint: mean survival time, dose: 200.0 mg/kg/injection, schedule: Q01DX001 (ip), vehicle: Klucel (hydroxypropylcellulose) (HPC) 99 % of control | endpoint: mean survival time, dose: 400.0 mg/kg/injection, schedule: Q01DX001 (ip), vehicle: Klucel (hydroxypropylcellulose) (HPC) 99 % of control

BrCC(Br)c1ccccc1 (stereo not given)
inactive: [4] 100 % of control | [5] 100 % of control | [6] 96 % of control

CCOC(CCCO)OCC
inactive: [7] 103 % of control | [8] 100 % of control | [9] 103 % of control

Nc1cccc(=O)[nH]1
inactive: endpoint: mean survival time, dose: 12.5 mg/kg/injection, schedule: Q01DX009 (ip), vehicle: suspension in saline 96 % of control | endpoint: mean survival time, dose: 25.0 mg/kg/injection, schedule: Q01DX009 (ip), vehicle: suspension in saline 96 % of control and 104 % of control | endpoint: mean survival time, dose: 50.0 mg/kg/injection, schedule: Q01DX009 (ip), vehicle: suspension in saline 95 % of control and 96 % of control | endpoint: mean survival time, dose: 100.0 mg/kg/injection, schedule: Q01DX009 (ip), vehicle: suspension in saline 90 % of control and 96 % of control | endpoint: mean survival time, dose: 200.0 mg/kg/injection, schedule: Q01DX009 (ip), vehicle: suspension in saline 102 % of control and 107 % of control | endpoint: mean survival time, dose: 400.0 mg/kg/injection, schedule: Q01DX009 (ip), vehicle: suspension in saline 104 % of control

CC(=O)OC1CCC2(C)C(CCC3(C)C2CCC2C4C5OC(=O)C4(CCC5(C)C)CCC23C)C1(C)C (stereo not given)
inactive: endpoint: mean survival time, dose: 6.25 mg/kg/injection, schedule: Q04DX002 (ip), vehicle: saline with Tween-80 114 % of control | [1] 100 % of control | [2] 100 % of control | [3] 88 % of control | [7] 98 % of control

COC(=O)Nc1ccc(Cl)cc1[N+](=O)[O-]
inactive: [7] 95 % of control | [8] 95 % of control | [9] 91 % of control

O=C(O)CCCCCCCCCO
inactive: [10] 91 % of control | [11] 87 % of control | [12] 86 % of control

CC(=O)c1ccc(N=C2C=CC(=O)O2)cc1
inactive: [4] 102 % of control | [5] 96 % of control | [6] 96 % of control

CCOC(=O)c1cc2c(=O)cccnc2o1
inactive: endpoint: mean survival time, dose: 75.0 mg/kg/injection, schedule: Q01DX001 (ip), vehicle: saline 93 % of control | endpoint: mean survival time, dose: 150.0 mg/kg/injection, schedule: Q01DX001 (ip), vehicle: saline 96 % of control | endpoint: mean survival time, dose: 300.0 mg/kg/injection, schedule: Q01DX001 (ip), vehicle: saline 96 % of control

OCn1c2ccccc2c2ccccc21
inactive: [4] 89 % of control | [5] 87 % of control | [6] 87 % of control

C=C(C)CSC(=S)NNc1ccccc1
inactive: endpoint: mean survival time, dose: 25.0 mg/kg/injection, schedule: Q01DX009 (ip), vehicle: acetone 93 % of control | endpoint: mean survival time, dose: 50.0 mg/kg/injection, schedule: Q01DX009 (ip), vehicle: acetone 96 % of control | endpoint: mean survival time, dose: 100.0 mg/kg/injection, schedule: Q01DX009 (ip), vehicle: acetone 102 % of control

O=C(O)[C@H](Cc1ccccc1)N1C(=O)c2ccccc2C1=O
inactive: endpoint: median survival time, dose: 75.0 mg/kg/injection, schedule: Q01DX005 (ip), vehicle: DMSO 96 % of control | endpoint: median survival time, dose: 150.0 mg/kg/injection, schedule: Q01DX005 (ip), vehicle: DMSO 93 % of control | endpoint: median survival time, dose: 300.0 mg/kg/injection, schedule: Q01DX005 (ip), vehicle: DMSO 96 % of control | endpoint: median survival time, dose: 600.0 mg/kg/injection, schedule: Q01DX005 (ip), vehicle: DMSO 98 % of control

CC=C(C(=O)OCC)C(=O)OCC
inactive: endpoint: mean survival time, dose: 100.0 mg/kg/injection, schedule: Q01DX001 (ip), vehicle: saline 95 % of control | endpoint: mean survival time, dose: 200.0 mg/kg/injection, schedule: Q01DX001 (ip), vehicle: saline 98 % of control | endpoint: mean survival time, dose: 400.0 mg/kg/injection, schedule: Q01DX001 (ip), vehicle: saline 107 % of control

CC(=O)C(C)(C)N(C)c1ccccc1
inactive: endpoint: mean survival time, dose: 100.0 mg/kg/injection, schedule: Q04DX003 (ip), vehicle: saline 97 % of control | endpoint: mean survival time, dose: 200.0 mg/kg/injection, schedule: Q04DX003 (ip), vehicle: saline 93 % of control | endpoint: mean survival time, dose: 400.0 mg/kg/injection, schedule: Q04DX003 (ip), vehicle: saline 93 % of control

Cc1n[nH]c2ccc(Br)cc2c1=O
inactive: endpoint: mean survival time, dose: 50.0 mg/kg/injection, schedule: Q01DX009 (ip), vehicle: saline with Tween-80 97 % of control | endpoint: mean survival time, dose: 100.0 mg/kg/injection, schedule: Q01DX009 (ip), vehicle: saline with Tween-80 91 % of control | [4] 101 % of control | endpoint: mean survival time, dose: 200.0 mg/kg/injection, schedule: Q01DX009 (ip), vehicle: saline with Tween-80 101 % of control | [5] 87 % of control

CN(c1ccccc1)c1ccc(N=Nc2nc3ccccc3s2)cc1
inactive: [10] 95 % of control | [11] 98 % of control | [12] 87 % of control
